From patent US11420947B2, “(S)-n-hydroxy-2-(2-(4-methoxyphenyl)butanamido)thiazole-5-carboxamide and pharmaceutically acceptable salts thereof” (TRANSLATIONAL DRUG DEVELOPMENT, LLC, priority 2018, dated 2022)
Read-outs that look alike come from different tables or passages of the source.

Tests used:
4T1 = assay: CellTiter-Glo cell viability assay; type: cell-based, Murine; conditions: for IC50: Mus musculus, 4T1, BREAST, Murine Breast Tumor, 72 hours
Description: (§1) Cell viability in the presence of varying concentrations of the above listed compounds at different time points was used to assess cytotoxicity and the effect of the compounds on cell proliferation.
(§2) Cell viability was measured by the CellTiter-Glo® cell viability assay from Promega (Madison, Wis.). The CellTiter-Glo® Luminescent Cell Viability Assay is a homogeneous method to determine the number of viable cells in culture based on quantitation of the ATP present, which signals the presence of metabolically active cells. Following treatment, CellTiter-Glo® is added to treatment wells and incubated at 37° C. luminescence values were measured at using a Molecular Devices Spectramax microplate reader
(§3) Cells were grown to 70% confluency, trypsinized, counted, and seeded in 96 well flat-bottom plates at a final concentration of 2.5×10^3-5×10^3 cells/well (Day 0). Cells were allowed to incubate in growth media for 24 hours. Treatment with the test agents or standard agents began on Day 1 and continued for 72 hours. At the 72-hour timepoint, treatment containing media was removed. Viable cell numbers are quantified by the CellTiter-Glo® cell viability assay as described above. Results from these studies were used to calculate an IC50 value (concentration of drug that inhibits cell growth by 50 percent of control) for each compound.
(§4) For single agent and combination studies, data from each experiment was collected and expressed as % Cell Growth using the following calculation: % Cell Growth=(ftest/fvehicle)×100
(§5) Where test is the fluorescence of the tested sample, and fvehicle is the fluorescence of the vehicle in which the drug is dissolved. Dose response graphs and IC50 values were generated using Prism 6 software (GraphPad) using the following equation: Y=(Top-Bottom)/(1+10^((logIC^50^-X)-HillSlope))

MC38 = assay: CellTiter-Glo cell viability assay; type: cell-based, Murine; conditions: for IC50: Mus musculus, MC-38, MC38, MURINE COLON, Colon, 72 hours
Description: as §1, §2, §3, §4, §5

CT26 = assay: CellTiter-Glo cell viability assay; type: cell-based, Murine; conditions: for IC50: Mus musculus, CT26, MURINE COLON, Colon, 72 hours
Description: as §1, §2, §3, §4, §5

L1210 = assay: CellTiter-Glo cell viability assay; type: cell-based, Murine; conditions: for IC50: Mus musculus, L1210, HEMATOPIETIC, Murine Leukemia, 72 hours
Description: as §1, §2, §3, §4, §5

GL261 = assay: CellTiter-Glo cell viability assay; type: cell-based, Murine; conditions: for IC50: Mus musculus, GL261, MURINE BRAIN, Murine Glioma, 72 hours
Description: as §1, §2, §3, §4, §5

BIN-67 = assay: CellTiter-Glo cell viability assay; type: cell-based, Human; conditions: for IC50: BIN-67, OVARIAN, Human Small Cell Carcinoma of the Ovary, 72 hours
Description: as §1, §2, §3, §4, §5

SKOV-3 = assay: CellTiter-Glo cell viability assay; type: cell-based, Human; conditions: for IC50: SK-OV-3, SKOV-3, OVARIAN, Human Ovarian Carcinoma, 72 hours
Description: as §1, §2, §3, §4, §5

A2780cp = assay: CellTiter-Glo cell viability assay; type: cell-based, Human; conditions: for IC50: A2780C/P, A2780cp, OVARIAN, Platinum res-Human Ovarian, 72 hours
Description: as §1, §2, §3, §4, §5

OVCAR-8 = assay: CellTiter-Glo cell viability assay; type: cell-based, Human; conditions: for IC50: OVCAR-8, OVARIAN, Human Ovarian Carcinoma, 72 hours
Description: as §1, §2, §3, §4, §5

SCCOHT-1 = assay: CellTiter-Glo cell viability assay; type: cell-based, Human; conditions: for IC50: SCCOHT-1, OVARIAN, Human Small Cell Carcinoma of the Ovary, 72 hours
Description: as §1, §2, §3, §4, §5

OVCAR-3 = assay: CellTiter-Glo cell viability assay; type: cell-based, Human; conditions: for IC50: OVCAR-3, OVARIAN, Human Ovarian Carcinoma, 72 hours
Description: as §1, §2, §3, §4, §5

IGROV-1 = assay: CellTiter-Glo cell viability assay; type: cell-based, Human; conditions: for IC50: IGROV-1, OVARIAN, Human Ovarian Adenocarcinoma, 72 hours
Description: as §1, §2, §3, §4, §5

A2780 = assay: CellTiter-Glo cell viability assay; type: cell-based, Human; conditions: for IC50: A2780, OVARIAN, Human Ovarian, 72 hours
Description: as §1, §2, §3, §4, §5

COV434 = assay: CellTiter-Glo cell viability assay; type: cell-based, Human; conditions: for IC50: COV434, OVARIAN, Human Ovarian Granulosa, 72 hours
Description: as §1, §2, §3, §4, §5

H1650 = assay: CellTiter-Glo cell viability assay; type: cell-based; conditions: for IC50: Homo sapiens, NCI-H1650, H1650, LUNG, NSCLC, 72 hours
Description: as §1, §2, §3, §4, §5

MCF7 = assay: CellTiter-Glo cell viability assay; type: cell-based; conditions: for IC50: Homo sapiens, MCF7, BREAST, ER + BCC, 72 hours
Description: as §1, §2, §3, §4, §5

Hs695T = assay: CellTiter-Glo cell viability assay; type: cell-based; conditions: for IC50: Homo sapiens, Hs 695T, Hs695T, MELANOMA, LN Met, 72 hours
Description: as §1, §2, §3, §4, §5

Capan-2 = assay: CellTiter-Glo cell viability assay; type: cell-based; conditions: for IC50: Homo sapiens, Capan-2, PANCREAS, Pancreatic, 72 hours
Description: as §1, §2, §3, §4, §5

A427 = assay: CellTiter-Glo cell viability assay; type: cell-based; conditions: for IC50: Homo sapiens, A-427, A427, LUNG, Carcinoma, 72 hours
Description: as §1, §2, §3, §4, §5

NCI-H226 = assay: CellTiter-Glo cell viability assay; type: cell-based; conditions: for IC50: Homo sapiens, NCI-H226, LUNG, Mesothelioma, 72 hours
Description: as §1, §2, §3, §4, §5

[1] = Pharmacokinetics studies in mice; type: in vivo; conditions: for AUC(0-inf) / AUC(0-t) / Cmax / Tmax / bioavailability / half-life / Vd/F: mouse, in vivo; for Vd/F: read-out: Vz/Fobs
Excerpt: Volume of distribution is one of the most important pharmacokinetic properties of a drug candidate and for an anticancer drug can result in increased drug distribution to the tumor.

[2] = IV-1 mg/kg, 5% Ethanol 5% Cremophor 90% Saline
[3] = PO-5 mg/kg, 10% Ethanol 90% Labrasol
[4] = SC-5 mg/kg, 5% Ethanol 5% Cremophor 90% Saline

Compound: CCC(C(=O)Nc1ncc(C(=O)NO)s1)c1ccc(OC)cc1 (racemic) [#1, N-hydroxy-2-(2-(4-methoxyphenyl)butanamido)thiazole-5-carboxamide]
- IC50 (4T1): 36 nM
- IC50 (MC38): 128 nM
- IC50 (CT26): 1320 nM
- IC50 (L1210): 59 nM
- IC50 (GL261): 372 nM
- IC50 (BIN-67): 68 nM
- IC50 (SKOV-3): 113 nM
- IC50 (A2780cp): 117 nM
- IC50 (OVCAR-8): 36 nM
- IC50 (SCCOHT-1): 341 nM
- IC50 (OVCAR-3): 65 nM
- IC50 (IGROV-1): 78 nM
- IC50 (A2780): 48 nM
- IC50 (COV434): 47 nM
- IC50 (H1650): 363 nM
- IC50 (MCF7): 39 nM
- IC50 (Hs695T): 372 nM
- IC50 (Capan-2): 363 nM
- IC50 (A427): 309 nM
- IC50 (NCI-H226): 479 nM
- AUC % Extrap ([1]; PO-5 mg/kg): 5.51%
- CI/Fobs ([1]; PO-5 mg/kg): 28.99 L/h/kg
- AUC(0-inf) ([1]; PO-5 mg/kg): 172 ng·h/mL
- AUC(0-t) ([1]; PO-5 mg/kg): 163 ng·h/mL
- Cmax ([1]; PO-5 mg/kg): 30.8 ng/mL
- Tmax ([1]; PO-5 mg/kg): 30 min
- bioavailability ([1]; PO-5 mg/kg): 14.3%
- half-life ([1]; PO-5 mg/kg): 326 min
- Vd/F ([1]; PO-5 mg/kg): 228 L/kg

Compound: CC[C@H](C(=O)Nc1ncc(C(=O)NO)s1)c1ccc(OC)cc1 [#1a, (S)—N-hydroxy-2-(2-(4-methoxyphenyl)butanamido)thiazole-5-carboxamide]
- IC50 (4T1): 23 nM
- #1/#1a (4T1; ratio of IC50, 4T1): 1.57
- #1b/#1a (4T1; ratio of IC50, 4T1): 8.04
- IC50 (MC38): 58 nM
- #1/#1a (MC38; ratio of IC50, MC38): 2.21
- #1b/#1a (MC38; ratio of IC50, MC38): 8.5
- IC50 (CT26): 465 nM
- #1/#1a (CT26; ratio of IC50, CT26): 2.83
- #1b/#1a (CT26; ratio of IC50, CT26): 6.91
- IC50 (L1210): 38 nM
- #1/#1a (L1210; ratio of IC50, L1210): 1.55
- #1b/#1a (L1210; ratio of IC50, L1210): 8.53
- IC50 (GL261): 132 nM
- #1/#1a (GL261; ratio of IC50, GL261): 2.82
- #1b/#1a (GL261; ratio of IC50, GL261): 9.11
- IC50 (BIN-67): 51 nM
- #1/#1a (BIN-67; ratio of IC50, BIN-67): 1.33
- #1b/#1a (BIN-67; ratio of IC50, BIN-67): 8.82
- IC50 (SKOV-3): 63 nM
- #1/#1a (SKOV-3; ratio of IC50, SKOV-3): 1.79
- #1b/#1a (SKOV-3; ratio of IC50, SKOV-3): 8.08
- IC50 (A2780cp): 62 nM
- #1/#1a (A2780cp; ratio of IC50, A2780cp): 1.89
- #1b/#1a (A2780cp; ratio of IC50, A2780cp): 6.1
- IC50 (OVCAR-8): 21 nM
- #1/#1a (OVCAR-8; ratio of IC50, OVCAR-8): 1.71
- #1b/#1a (OVCAR-8; ratio of IC50, OVCAR-8): 5.38
- IC50 (SCCOHT-1): 293 nM
- #1/#1a (SCCOHT-1; ratio of IC50, SCCOHT-1): 1.16
- #1b/#1a (SCCOHT-1; ratio of IC50, SCCOHT-1): 0.63
- IC50 (OVCAR-3): 39 nM
- #1/#1a (OVCAR-3; ratio of IC50, OVCAR-3): 1.67
- #1b/#1a (OVCAR-3; ratio of IC50, OVCAR-3): 6.26
- IC50 (IGROV-1): 54 nM
- #1/#1a (IGROV-1; ratio of IC50, IGROV-1): 1.44
- #1b/#1a (IGROV-1; ratio of IC50, IGROV-1): 9.07
- IC50 (A2780): 32 nM
- #1/#1a (A2780; ratio of IC50, A2780): 1.5
- #1b/#1a (A2780; ratio of IC50, A2780): 6.84
- IC50 (COV434): 35 nM
- #1b/#1a (COV434; ratio of IC50, COV434): 9.69
- IC50 (H1650): 174 nM
- #1/#1a (H1650; ratio of IC50, H1650): 2.09
- #1b/#1a (H1650; ratio of IC50, H1650): 6.91
- IC50 (MCF7): 21 nM
- #1/#1a (MCF7; ratio of IC50, MCF7): 1.86
- #1b/#1a (MCF7; ratio of IC50, MCF7): 7.52
- IC50 (Hs695T): 52 nM
- #1/#1a (Hs695T; ratio of IC50, Hs695T): 7.15
- #1b/#1a (Hs695T; ratio of IC50, Hs695T): 18.65
- IC50 (Capan-2): 136 nM
- #1/#1a (Capan-2; ratio of IC50, Capan-2): 2.67
- #1b/#1a (Capan-2; ratio of IC50, Capan-2): 7.13
- IC50 (A427): 186 nM
- #1/#1a (A427; ratio of IC50, A427): 1.66
- #1b/#1a (A427; ratio of IC50, A427): 7.77
- IC50 (NCI-H226): 200 nM
- #1/#1a (NCI-H226; ratio of IC50, NCI-H226): 2.4
- #1b/#1a (NCI-H226; ratio of IC50, NCI-H226): 8.44
- AUC % Extrap [1, 2]: 0.20%
- CI/Fobs [1, 2]: 9.38 L/h/kg
- AUC % Extrap ([1]; PO-5 mg/kg): 1.93%
- CI/Fobs ([1]; PO-5 mg/kg): 67.30 L/h/kg
- AUC % Extrap [1, 3]: 1.93%
- CI/Fobs [1, 3]: 67.30 L/h/kg
- AUC % Extrap [1, 4]: 0.85%
- CI/Fobs [1, 4]: 14.42 L/h/kg
- AUC(0-inf) [1, 2]: 107 ng·h/mL
- AUC(0-t) [1, 2]: 106 ng·h/mL
- Cmax [1, 2]: 131 ng/mL
- Tmax [1, 2]: 15 min
- half-life [1, 2]: 55.8 min
- AUC(0-inf) ([1]; PO-5 mg/kg): 74.3 ng·h/mL
- AUC(0-t) ([1]; PO-5 mg/kg): 72.8 ng·h/mL
- Cmax ([1]; PO-5 mg/kg): 28.7 ng/mL
- Tmax ([1]; PO-5 mg/kg): 30 min
- bioavailability ([1]; PO-5 mg/kg): 13.9%
- half-life ([1]; PO-5 mg/kg): 332 min
- Vd/F ([1]; PO-5 mg/kg): 537 L/kg
- AUC(0-inf) [1, 4]: 347 ng·h/mL
- AUC(0-t) [1, 4]: 344 ng·h/mL
- Cmax [1, 4]: 252 ng/mL
- Tmax [1, 4]: 15 min
- bioavailability [1, 4]: 65.1%
- half-life [1, 4]: 73.2 min
- Vd/F [1, 4]: 25.3 L/kg
